Results: patent publication US20150119373A1, “NOVEL BETULINIC ACID DERIVATIVES AS HIV INHIBITORS” (HETERO RESEARCH FOUNDATION, priority 2012, published 2015)
Where two headings read alike, the source gives them in different places.

Key:
HIV-1 strain 92HT599 = experiment: Antiviral activity: p24 estimation in MT2 cells infected with HIV-1 strain 92HT599; assay type: cell-based; settings: for inhibition at 0.1 µM: read-out: Antiviral activity % inhibition 100 nM; for inhibition at 1 µM: read-out: Antiviral activity % inhibition 1000 nM
Experimental: MT2 cells were infected with HIV-1 strain 92HT599 (10 TCID 50/30000 cells). The infected cells were plated at the concentration of […] cells per well in 96 well plate. Test compound was added to the micro plate in defined format with the final concentration of DMSO (vehicle) is not more than 1%. Incubation was carried out in CO2 incubator for ˜96 hours for viral infection. At the end of incubation period an aliquot from each well was taken for p24 estimation. The quantitation of p24 is an index for antiviral activity of the compound. Percent inhibition was calculated with reference to control values (vehicle controls).
p-24 estimation was carried out using Advance biosciences kit as per the procedure detailed by supplier.

[1] = Cyto-toxicity assay (MTT) in MT2 cells without virus; assay type: cell-based; settings: human
Experimental: For cyto-toxicity assay the same amount of MT2 cells as in antiviral assay without virus was added to the 96 well plates. The cyto-toxicity was measured using MTT reagent in parallel with p24 estimation. The percent viability is calculated in comparison with vehicle control.

[2] = Single dose oral pharmacokinetic study in mice; assay type: in vivo; settings: for AUC(0-inf) / Cmax / Tmax / AUC(0-t): mouse, plasma
Experimental: The test item was administered through oral route to animals (rat/mice) at 30 mg/kg dose in a suitable vehicle at 10 ml/kg dose volume. Blood samples (˜50 uL at each time point) were collected from retro-orbital plexus using K3 EDTA as anticoagulant in eppendorf tubes at defined time intervals under light ether anesthesia. The samples were centrifuged at 3500×g to separate plasma and stored at −80° C. until analysis.
Sample analysis: Test samples were analyzed using LC-MS-MS after developing fit-for-purpose method for each of test compound.

[3] = Human immunodeficiency virus 1, 100 nM, MT2 cells, HIV-1 92HT599, ~96 hours, p24
[4] = Human immunodeficiency virus 1, 1000 nM, MT2 cells, HIV-1 92HT599, ~96 hours, p24
[5] = Oral PK @ 30 mg/ kg dose in mice (Table 6)
[6] = Oral PK @ 30 mg/ kg dose in mice (Table 6), read-out: AUCt
[7] = Mice oral PK @30 mg/kg (Table 5)
[8] = Human immunodeficiency virus 1, MT2, 96 h

Row | Compound | inhibition at 0.1 µM (HIV-1 strain 92HT599; [3]) [%] | inhibition at 1 µM (HIV-1 strain 92HT599; [4]) [%] | viability at 100 nM [1] [%] | viability at 1000 nM [1] [%] | Tlast [2, 5] [h] | AUC(0-inf) [2, 5] [µg·h/mL] | Cmax [2, 5] [ng/mL] | Tmax [2, 5] [h] | AUC(0-t) [2, 6] [ng·h/mL] | Cmax [2, 7] [ng/mL] | Tmax [2, 7] [h] | AUC(0-t) ([2]; Mice oral PK @30 mg/kg (Table 5), read-out: AUC 0-t) [ng·h/mL] | inhibition at 0.1 µM (HIV-1 strain 92HT599; [8]) [%] | inhibition at 1 µM (HIV-1 strain 92HT599; [8]) [%] | viability at 100 nM ([1]; 100 nM, MT2 cells, MTT, read-out: Cytotoxicity % viability 100 nM) [%] | viability at 1000 nM ([1]; 1000 nM, MT2 cells, MTT, read-out: Cytotoxicity % viability 1000 nM) [%]
1 | CC1([C@@H]2CC[C@]3(C(=O)N4CCC(C(=O)NCCN5CCOCC5)CC4)CC[C@]4(C)[C@H](CC[C@@H]5[C@@]6(C)CC[C@H](OC(=O)[C@H]7C[C@@H](C(=O)O)C7(C)C)C(C)(C)[C@@H]6CC[C@]54C)[C@@H]23)CC1 [Example 50, (1R,3S)-2,2-dimethyl-3-((((1R,3aS,5aR,5bR,7aR,9S,11aR,11bR,13aR,13bR)-5a,5b,8,8,11a-pentamethyl-1-(1-methylcyclopropyl)-3a-(4-((2-morpholinoethyl)carbamoyl)piperidine-1-carbonyl)icosahydro-1H-cyclopenta[a]chrysen-9-yl)oxy)carbonyl)cyclobutane-1-carboxylic acid] | 99 | 99 | 86 | 96 | 48 | 171 | 9100 | 6 | 164000 | – | – | – | – | – | – | –
2 | [2H]C([2H])([2H])C(CC(=O)O[C@H]1CC[C@]2(C)[C@H]3CC[C@@H]4[C@H]5[C@H](C(=C)C)CC[C@]5(C(=O)N[C@@H]5C[C@H](C(=O)N6CCCCC6)C5(C)C)CC[C@@]4(C)[C@]3(C)CC[C@H]2C1(C)C)(C(=O)O)C([2H])([2H])[2H] [Example 24, 4-(((1R,3aS,5aR,5bR,7aR,9S,11aR,11bR,13aR,13bR)-3a-(((1R,3S)-2,2-dimethyl-3-(piperidine-1-carbonyl)cyclobutyl)carbamoyl)-5a,5b,8,8,11a-pentamethyl-1-(prop-1-en-2-yl)icosahydro-1H-cyclopenta[a]chrysen-9-yl)oxy)-2,2-bis(methyl-d3)-4-oxobutanoic acid] | 100 | 100 | 83 | 99 | 24 | 123 | 9100 | 2 | 70000 | – | – | – | – | – | – | –
3 | C=C(C)[C@@H]1CC[C@]2(C(=O)N[C@@H]3C[C@H](C(=O)N4CCCCC4)C3(C)C)CC[C@]3(C)[C@H](CC[C@@H]4[C@@]5(C)CC[C@H](OC(=O)[C@H]6[C@@H](CC(=O)O)C6(C)C)C(C)(C)[C@@H]5CC[C@]43C)[C@@H]12 [Example 18, 2-((1R,3S)-3-(((1R,3aS,5aR,5bR,7aR,9S,11aR,11bR,13aR,13bR)-3a-((1R,3S)-2,2-dimethyl-3-(piperidine-1-carbonyl)cyclobutylcarbamoyl)-5a,5b,8,8,11a-pentamethyl-1-(prop-1-en-2-yl)icosahydro-1H-cyclopenta[a]chrysen-9-yloxy)carbonyl)-2,2-dimethylcyclopropyl)acetic acid] | 100 | 100 | 82 | 77 | – | – | – | – | – | 4230 | 2.25 | 36600 | – | – | – | –
4 | COCCOCCN1CCN(C(=O)[C@]23CC[C@@H](C4(C)CC4)[C@@H]2[C@H]2CC[C@@H]4[C@@]5(C)CC[C@H](OC(=O)[C@H]6C[C@@H](C(=O)O)C6(C)C)C(C)(C)[C@@H]5CC[C@@]4(C)[C@]2(C)CC3)CC1 [Example 40, (1R,3S)-3-((((1R,3aS,5aR,5bR,7aR,9S,11aR,11bR,13aR,13bR)-3a-(4-(2-(2-methoxyethoxy)ethyl)piperazine-1-carbonyl)-5a,5b,8,8,11a-pentamethyl-1-(1-methylcyclopropyl)icosahydro-1H-cyclopenta[a]chrysen-9-yl)oxy)carbonyl)-2,2-dimethylcyclobutane-1-carboxylic acid] | 100 | 99 | 79 | 81 | 48 | 119 | 7000 | 4 | 111000 | – | – | – | – | – | – | –
5 | COCCOC1CCN(C(=O)[C@]23CC[C@@H](C4(C)CC4)[C@@H]2[C@H]2CC[C@@H]4[C@@]5(C)CC[C@H](OC(=O)[C@H]6C[C@@H](C(=O)O)C6(C)C)C(C)(C)[C@@H]5CC[C@@]4(C)[C@]2(C)CC3)CC1 [Example 42, (1R,3S)-3-((((1R,3aS,5aR,5bR,7aR,9S,11aR,11bR,13aR,13bR)-3a-(4-(2-methoxyethoxyl)piperidine-1-carbonyl)-5a,5b,8,8,8,11a-pentamethyl-1-(1-methylcyclopropyl)icosahydro-1H-cyclopenta[a]chrysen-9-yl)oxy)carbonyl)-2,2-dimethylcyclobutane-1-carboxylic acid] | – | – | – | – | 48 | – | 7400 | 32 | 300000 | – | – | – | 94 | 99 | 86 | 84
6 | CC(C)(CC(=O)O[C@H]1CC[C@]2(C)[C@H]3CC[C@@H]4[C@H]5[C@H](C6(C)CC6)CC[C@]5(C(=O)N5CCC(C(=O)NCCN6CCOCC6)CC5)CC[C@@]4(C)[C@]3(C)CC[C@H]2C1(C)C)C(=O)O [Example 49, 2,2-dimethyl-4-oxo-4-(((1R,3aS,5aR,5bR,7aR,9S,11aR,11bR,13aR,13bR)-5a,5b,8,8,11a-pentamethyl-1-(1-methylcyclopropyl)-3a-(4-((2-morpholinoethyl)carbamoyl)piperidine-1-carbonyl)icosahydro-1H-cyclopenta[a]chrysen-9-yl)oxy)butanoic acid] | 99 | 98 | 85 | 88 | 48 | 38.8 | 5600 | 1.3 | 38700 | – | – | – | – | – | – | –
7 | COCCOCCOC1CCN(C(=O)[C@]23CC[C@@H](C4(C)CC4)[C@@H]2[C@H]2CC[C@@H]4[C@@]5(C)CC[C@H](OC(=O)[C@H]6C[C@@H](C(=O)O)C6(C)C)C(C)(C)[C@@H]5CC[C@@]4(C)[C@]2(C)CC3)CC1 [Example 44, (1R,3S)-3-((((1R,3aS,5aR,5bR,7aR,9S,11aR,11bR,13aR,13bR)-3a-(4-(2-(2-methoxyethoxyl)ethoxy)piperidine-1-carbonyl)-5a,5b,8,8,11a-pentamethyl-1-(1-methylcyclopropyl)icosahydro-1H-cyclopenta[a]chrysen-9-yl)oxy)carbonyl)-2,2-dimethylcyclobutane-1-carboxylic acid] | 97 | 100 | 93 | 86 | – | – | – | – | – | – | – | – | – | – | – | –
8 | CC(C)(CC(=O)O[C@H]1CC[C@]2(C)[C@H]3CC[C@@H]4[C@H]5[C@H](C6(C)CC6)CC[C@]5(C(=O)N5CCCCC5)CC[C@@]4(C)[C@]3(C)CC[C@H]2C1(C)C)C(=O)O [Compound 3, 2,2-dimethyl-4-oxo-4-((1R,3aS,5aR,5bR,7aR,9S,11aR,11bR,13aR,13bR)-5a,5b,8,8,11a-pentamethyl-1-(1-methylcyclopropyl)-3a-(piperidine-1-carbonyl)icosahydro-1H-cyclopenta[a]chrysen-9-yloxy)butanoic acid] | 97 | 97 | 100 | 99 | – | – | – | – | – | – | – | – | – | – | – | –
9 | CC(C)(C)OC(=O)N1CCN(C(=O)[C@]23CC[C@@H](C4(C)CC4)[C@@H]2[C@H]2CC[C@@H]4[C@@]5(C)CC[C@H](OC(=O)[C@H]6C[C@@H](C(=O)O)C6(C)C)C(C)(C)[C@@H]5CC[C@@]4(C)[C@]2(C)CC3)CC1 [Example 38] | 68 | 99 | 85 | 83 | – | – | – | – | – | – | – | – | – | – | – | –
10 | CC(CO)(CO)C(=O)N1CCN(C(=O)[C@]23CC[C@@H](C4(C)CC4)[C@@H]2[C@H]2CC[C@@H]4[C@@]5(C)CC[C@H](OC(=O)[C@H]6C[C@@H](C(=O)O)C6(C)C)C(C)(C)[C@@H]5CC[C@@]4(C)[C@]2(C)CC3)CC1 [Example 36] | 33 | 99 | 77 | 90 | – | – | – | – | – | – | – | – | – | – | – | –
11 | C=C(C)[C@@H]1CC[C@]2(c3nnc(-c4cccnc4)o3)CC[C@]3(C)[C@H](CC[C@@H]4[C@@]5(C)CC[C@H](OC(=O)[C@H]6[C@@H](CC(=O)O)C6(C)C)C(C)(C)[C@@H]5CC[C@]43C)[C@@H]12 [Example 6, 2-((1R,3S)-2,2-dimethyl-3-(((1R,3aS,5aR,5bR,7aR,9S,11aR,11bR,13aR,13bR)-5a,5b,8,8,11a-pentamethyl-1-(prop-1-en-2-yl)-3a-(5-(pyridin-3-yl)-1,3,4-oxadiazol-2-yl)icosahydro-1H-cyclopenta[a]chrysen-9-yloxy)carbonyl)cyclopropyl)aceticacid] | 85 | 92 | 94 | 87 | – | – | – | – | – | – | – | – | – | – | – | –
